The values below come from US6579855B1, “Adenovirus-mediated gene therapy” (priority 1998, dated 2003).

Each structure is given as a SMILES string.

The series is described as follows: Clinical safety of gene transfer and GCV treatment (adverse effects, routine laboratory measurements). Format: in vivo, human. The note with it: GCV 5 mg/kg/d intravenously, 14 days; only one patient, without symptoms. As to the method:
All patients underwent craniotomy and tumour resection. The resection was as radical as possible under the microscope. The diagnosis of malignant glioma was confirmed by frozen sections at the time of the operation. After tumour resection, HSVtk retrovirus packaging cells (10^9 cells/10 ml) or adenoviruses (3×10^10 pfu/10 ml) were injected into the wall of the tumour cavity in 0.1-0.3 ml quantities, 10 mm deep, with 30-70 injections/patient. GCV treatment (5 mg/kg/d) was delivered intravenously through the subclavian vein twice a day for 14 days. The medication started 14 days or 5 days after the tumour resection and gene transfer in retrovirus or adenovirus patients, respectively. β-galactosidase gene was transferred to seven control group patients via a catheter which was stereotactically inserted into the tumour. The catheter was left in place until the tumour was resected in craniotomy. […]
Blood and urine samples were analyzed using routine methods before gene transfer, on the first postoperative day and weekly during hospitalization except for leucocyte differential count which was measured every second day during GCV medication. Anti-virus antibodies were measured before and two weeks after the gene transfer. […]

For the molecule `Nc1nc(O)c2ncn(COC(CO)CO)c2n1` [GCV, ganciclovir], the “leukopenia during GCV treatment” value was “mild and reversible leukopenia”.
